What was measured:
[1] = biological target: T1, Alpha-2C adrenergic receptor (Homo sapiens) (UniProt P18825); assay: alpha2C Eurofins-Panlabs ligand profiling; conditions: Compound concentration 10.0 uM
T1 sequence (whole entry): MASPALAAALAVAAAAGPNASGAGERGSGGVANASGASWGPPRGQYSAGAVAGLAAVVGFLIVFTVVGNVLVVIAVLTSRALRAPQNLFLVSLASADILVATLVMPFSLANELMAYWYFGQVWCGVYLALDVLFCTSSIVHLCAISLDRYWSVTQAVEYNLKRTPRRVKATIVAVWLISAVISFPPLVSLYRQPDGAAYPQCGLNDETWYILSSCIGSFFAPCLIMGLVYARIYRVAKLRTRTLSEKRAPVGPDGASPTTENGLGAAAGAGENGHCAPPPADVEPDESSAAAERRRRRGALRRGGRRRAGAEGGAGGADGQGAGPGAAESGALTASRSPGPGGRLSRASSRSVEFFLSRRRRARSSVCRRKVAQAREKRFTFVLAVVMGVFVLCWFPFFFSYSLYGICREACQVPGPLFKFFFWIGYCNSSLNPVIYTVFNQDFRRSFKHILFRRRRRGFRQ

[2] = biological target: Cyclin-dependent kinase 13 (Homo sapiens) (UniProt Q14004); conditions: Compound concentration 1000.0 nM
[3] = test system: Tyrosine-protein kinase ABL1 (Homo sapiens), P00519 [T315I]; conditions: Compound concentration 1000.0 nM
[4] = biological target: Proto-oncogene tyrosine-protein kinase ROS (Homo sapiens) (UniProt P08922); conditions: Compound concentration 1000.0 nM
[5] = biological target: MAP kinase-activated protein kinase 2 (Homo sapiens) (UniProt P49137); conditions: Compound concentration 1000.0 nM
[6] = biological target: Muscle, skeletal receptor tyrosine-protein kinase (Homo sapiens) (UniProt O15146); conditions: Compound concentration 1000.0 nM
[7] = biological target: Beta-2 adrenergic receptor (Homo sapiens) (UniProt P07550); assay: beta2 Eurofins-Panlabs ligand profiling; conditions: Compound concentration 10.0 uM
[8] = biological target: 5-hydroxytryptamine receptor 3A (Homo sapiens) (UniProt P46098); conditions: Compound concentration 10.0 uM
[9] = biological target: 1-phosphatidylinositol 3-phosphate 5-kinase (Homo sapiens) (UniProt Q9Y2I7); conditions: Compound concentration 1000.0 nM
[10] = test system: Receptor-type tyrosine-protein kinase FLT3 (Homo sapiens), P36888 [R834Q]; conditions: Compound concentration 1000.0 nM
[11] = biological target: Serine/threonine-protein kinase PknB (Mycobacterium tuberculosis) (UniProt P9WI81); conditions: Compound concentration 1000.0 nM
[12] = biological target: Tyrosine-protein kinase ZAP-70 (Homo sapiens) (UniProt P43403); conditions: Compound concentration 1000.0 nM
[13] = biological target: Mitogen-activated protein kinase 10 (Homo sapiens) (UniProt P53779); conditions: Compound concentration 1000.0 nM
[14] = biological target: Ephrin type-A receptor 2 (Homo sapiens) (UniProt P29317); conditions: Compound concentration 1000.0 nM
[15] = biological target: Mitogen-activated protein kinase 13 (Homo sapiens) (UniProt O15264); conditions: Compound concentration 1000.0 nM
[16] = biological target: T2, Alpha-2A adrenergic receptor (Homo sapiens) (UniProt P08913); assay: alpha2A Eurofins-Panlabs ligand profiling; conditions: Compound concentration 10.0 uM
T2 sequence (whole entry): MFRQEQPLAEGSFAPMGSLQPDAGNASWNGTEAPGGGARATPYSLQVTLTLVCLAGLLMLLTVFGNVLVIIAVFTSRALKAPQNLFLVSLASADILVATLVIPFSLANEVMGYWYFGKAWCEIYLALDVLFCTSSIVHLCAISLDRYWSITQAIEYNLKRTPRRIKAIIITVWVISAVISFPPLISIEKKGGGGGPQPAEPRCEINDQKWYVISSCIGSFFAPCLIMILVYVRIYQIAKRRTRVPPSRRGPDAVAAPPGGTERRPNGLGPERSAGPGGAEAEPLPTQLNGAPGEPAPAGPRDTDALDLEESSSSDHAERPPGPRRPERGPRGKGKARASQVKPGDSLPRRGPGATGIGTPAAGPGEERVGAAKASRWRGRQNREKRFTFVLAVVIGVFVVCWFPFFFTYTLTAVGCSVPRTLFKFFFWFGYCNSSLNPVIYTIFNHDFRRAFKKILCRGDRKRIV

[17] = biological target: Beta-3 adrenergic receptor (Homo sapiens) (UniProt P13945); assay: beta3 Eurofins-Panlabs ligand profiling; conditions: Compound concentration 10.0 uM
[18] = biological target: Serine/threonine-protein kinase pim-2 (Homo sapiens) (UniProt Q9P1W9); conditions: Compound concentration 1000.0 nM
[19] = biological target: Serine/threonine-protein kinase 32B (Homo sapiens) (UniProt Q9NY57); conditions: Compound concentration 1000.0 nM
[20] = biological target: Insulin receptor (Homo sapiens) (UniProt P06213); conditions: Compound concentration 1000.0 nM
[21] = biological target: Alpha-2B adrenergic receptor (Homo sapiens, UniProt P18089); assay: alpha2B Eurofins-Panlabs ligand profiling
[22] = test system: Proto-oncogene tyrosine-protein kinase receptor Ret (Homo sapiens), P07949 [V804L]; conditions: Compound concentration 1000.0 nM
[23] = biological target: Serine/threonine-protein kinase OSR1 (Homo sapiens) (UniProt O95747); conditions: Compound concentration 1000.0 nM
[24] = biological target: Dual specificity tyrosine-phosphorylation-regulated kinase 1B (Homo sapiens) (UniProt Q9Y463); conditions: Compound concentration 1000.0 nM
[25] = biological target: Cyclin-dependent kinase 7 (Homo sapiens) (UniProt P50613); conditions: Compound concentration 1000.0 nM
[26] = biological target: Serine/threonine-protein kinase mTOR (Homo sapiens) (UniProt P42345); conditions: Compound concentration 1000.0 nM
[27] = biological target: Mitogen-activated protein kinase kinase kinase 19 (Homo sapiens) (UniProt Q56UN5); conditions: Compound concentration 1000.0 nM
[28] = biological target: Serine/threonine-protein kinase VRK2 (Homo sapiens) (UniProt Q86Y07); conditions: Compound concentration 1000.0 nM
[29] = biological target: Death-associated protein kinase 1 (Homo sapiens) (UniProt P53355); conditions: Compound concentration 1000.0 nM
[30] = biological target: Serotonin 1 (5-HT1) receptor (Homo sapiens) (UniProt P30939+P28222+P08908+P28221+P28566); assay: 5-HT1 Eurofins-Panlabs ligand profiling; assay type: protein assay; conditions: Compound concentration 10.0 uM
[31] = biological target: Beta-3 adrenergic receptor (Homo sapiens) (UniProt P13945); conditions: Compound concentration 10.0 uM
[32] = biological target: Alpha-1A adrenergic receptor (Homo sapiens) (UniProt P35348); conditions: Compound concentration 10.0 uM
[33] = biological target: Alpha-2B adrenergic receptor (Homo sapiens) (UniProt P18089); conditions: Compound concentration 10.0 uM

Chain of Death-associated protein kinase 1 (Homo sapiens) (P53355 whole entry, looked up): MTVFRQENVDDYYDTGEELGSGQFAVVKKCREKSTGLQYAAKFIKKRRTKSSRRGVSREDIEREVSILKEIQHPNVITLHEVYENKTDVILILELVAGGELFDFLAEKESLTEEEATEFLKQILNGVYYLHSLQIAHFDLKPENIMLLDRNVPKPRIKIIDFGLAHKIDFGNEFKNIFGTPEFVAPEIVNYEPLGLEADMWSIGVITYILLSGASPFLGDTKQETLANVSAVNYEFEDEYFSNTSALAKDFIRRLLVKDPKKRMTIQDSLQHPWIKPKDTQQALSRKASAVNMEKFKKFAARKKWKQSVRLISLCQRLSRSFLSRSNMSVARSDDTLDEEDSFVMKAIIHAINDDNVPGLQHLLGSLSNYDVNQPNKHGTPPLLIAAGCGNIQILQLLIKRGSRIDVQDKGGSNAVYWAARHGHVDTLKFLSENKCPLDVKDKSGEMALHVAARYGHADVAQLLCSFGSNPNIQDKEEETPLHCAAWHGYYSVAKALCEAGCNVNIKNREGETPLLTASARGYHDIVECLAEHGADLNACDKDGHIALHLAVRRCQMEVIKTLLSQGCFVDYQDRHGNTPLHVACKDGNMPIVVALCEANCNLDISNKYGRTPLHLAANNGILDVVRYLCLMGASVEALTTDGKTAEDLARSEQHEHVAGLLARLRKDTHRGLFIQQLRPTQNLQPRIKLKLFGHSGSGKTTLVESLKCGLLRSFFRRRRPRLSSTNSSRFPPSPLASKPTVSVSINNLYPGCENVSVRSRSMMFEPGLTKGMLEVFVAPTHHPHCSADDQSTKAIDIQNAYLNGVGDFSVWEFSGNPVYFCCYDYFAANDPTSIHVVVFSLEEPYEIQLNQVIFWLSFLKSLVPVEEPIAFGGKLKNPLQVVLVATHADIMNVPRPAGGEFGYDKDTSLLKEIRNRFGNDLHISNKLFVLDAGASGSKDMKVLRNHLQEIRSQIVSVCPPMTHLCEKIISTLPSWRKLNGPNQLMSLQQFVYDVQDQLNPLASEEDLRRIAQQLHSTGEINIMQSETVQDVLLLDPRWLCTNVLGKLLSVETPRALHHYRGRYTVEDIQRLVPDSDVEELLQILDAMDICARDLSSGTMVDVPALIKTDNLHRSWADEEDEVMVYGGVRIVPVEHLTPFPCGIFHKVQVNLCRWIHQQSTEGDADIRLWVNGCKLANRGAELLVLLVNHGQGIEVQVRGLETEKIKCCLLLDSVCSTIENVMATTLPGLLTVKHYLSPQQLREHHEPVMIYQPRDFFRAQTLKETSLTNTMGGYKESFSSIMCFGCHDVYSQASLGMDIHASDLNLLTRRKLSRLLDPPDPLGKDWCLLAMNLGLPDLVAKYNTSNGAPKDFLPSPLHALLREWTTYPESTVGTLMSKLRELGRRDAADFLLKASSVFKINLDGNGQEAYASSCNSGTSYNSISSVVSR
Chain of Serine/threonine-protein kinase PknB (Mycobacterium tuberculosis) (P9WI81 whole entry): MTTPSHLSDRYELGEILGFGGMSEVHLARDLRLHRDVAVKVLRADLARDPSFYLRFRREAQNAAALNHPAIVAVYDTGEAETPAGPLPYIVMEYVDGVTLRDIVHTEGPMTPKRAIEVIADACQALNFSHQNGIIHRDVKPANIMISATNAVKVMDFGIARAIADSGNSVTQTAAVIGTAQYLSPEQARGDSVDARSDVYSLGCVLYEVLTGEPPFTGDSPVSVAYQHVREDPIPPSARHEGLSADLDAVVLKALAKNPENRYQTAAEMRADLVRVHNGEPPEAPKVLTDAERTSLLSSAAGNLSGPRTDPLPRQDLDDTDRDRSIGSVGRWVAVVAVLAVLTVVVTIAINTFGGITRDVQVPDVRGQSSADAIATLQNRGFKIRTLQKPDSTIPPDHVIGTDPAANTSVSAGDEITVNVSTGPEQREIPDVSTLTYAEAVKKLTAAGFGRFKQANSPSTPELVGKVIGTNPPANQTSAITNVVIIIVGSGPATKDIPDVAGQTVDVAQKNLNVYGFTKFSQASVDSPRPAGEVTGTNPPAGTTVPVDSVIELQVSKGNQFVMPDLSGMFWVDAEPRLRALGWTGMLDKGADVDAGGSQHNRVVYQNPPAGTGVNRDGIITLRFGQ
Chain of Proto-oncogene tyrosine-protein kinase ROS (Homo sapiens) (P08922 whole entry): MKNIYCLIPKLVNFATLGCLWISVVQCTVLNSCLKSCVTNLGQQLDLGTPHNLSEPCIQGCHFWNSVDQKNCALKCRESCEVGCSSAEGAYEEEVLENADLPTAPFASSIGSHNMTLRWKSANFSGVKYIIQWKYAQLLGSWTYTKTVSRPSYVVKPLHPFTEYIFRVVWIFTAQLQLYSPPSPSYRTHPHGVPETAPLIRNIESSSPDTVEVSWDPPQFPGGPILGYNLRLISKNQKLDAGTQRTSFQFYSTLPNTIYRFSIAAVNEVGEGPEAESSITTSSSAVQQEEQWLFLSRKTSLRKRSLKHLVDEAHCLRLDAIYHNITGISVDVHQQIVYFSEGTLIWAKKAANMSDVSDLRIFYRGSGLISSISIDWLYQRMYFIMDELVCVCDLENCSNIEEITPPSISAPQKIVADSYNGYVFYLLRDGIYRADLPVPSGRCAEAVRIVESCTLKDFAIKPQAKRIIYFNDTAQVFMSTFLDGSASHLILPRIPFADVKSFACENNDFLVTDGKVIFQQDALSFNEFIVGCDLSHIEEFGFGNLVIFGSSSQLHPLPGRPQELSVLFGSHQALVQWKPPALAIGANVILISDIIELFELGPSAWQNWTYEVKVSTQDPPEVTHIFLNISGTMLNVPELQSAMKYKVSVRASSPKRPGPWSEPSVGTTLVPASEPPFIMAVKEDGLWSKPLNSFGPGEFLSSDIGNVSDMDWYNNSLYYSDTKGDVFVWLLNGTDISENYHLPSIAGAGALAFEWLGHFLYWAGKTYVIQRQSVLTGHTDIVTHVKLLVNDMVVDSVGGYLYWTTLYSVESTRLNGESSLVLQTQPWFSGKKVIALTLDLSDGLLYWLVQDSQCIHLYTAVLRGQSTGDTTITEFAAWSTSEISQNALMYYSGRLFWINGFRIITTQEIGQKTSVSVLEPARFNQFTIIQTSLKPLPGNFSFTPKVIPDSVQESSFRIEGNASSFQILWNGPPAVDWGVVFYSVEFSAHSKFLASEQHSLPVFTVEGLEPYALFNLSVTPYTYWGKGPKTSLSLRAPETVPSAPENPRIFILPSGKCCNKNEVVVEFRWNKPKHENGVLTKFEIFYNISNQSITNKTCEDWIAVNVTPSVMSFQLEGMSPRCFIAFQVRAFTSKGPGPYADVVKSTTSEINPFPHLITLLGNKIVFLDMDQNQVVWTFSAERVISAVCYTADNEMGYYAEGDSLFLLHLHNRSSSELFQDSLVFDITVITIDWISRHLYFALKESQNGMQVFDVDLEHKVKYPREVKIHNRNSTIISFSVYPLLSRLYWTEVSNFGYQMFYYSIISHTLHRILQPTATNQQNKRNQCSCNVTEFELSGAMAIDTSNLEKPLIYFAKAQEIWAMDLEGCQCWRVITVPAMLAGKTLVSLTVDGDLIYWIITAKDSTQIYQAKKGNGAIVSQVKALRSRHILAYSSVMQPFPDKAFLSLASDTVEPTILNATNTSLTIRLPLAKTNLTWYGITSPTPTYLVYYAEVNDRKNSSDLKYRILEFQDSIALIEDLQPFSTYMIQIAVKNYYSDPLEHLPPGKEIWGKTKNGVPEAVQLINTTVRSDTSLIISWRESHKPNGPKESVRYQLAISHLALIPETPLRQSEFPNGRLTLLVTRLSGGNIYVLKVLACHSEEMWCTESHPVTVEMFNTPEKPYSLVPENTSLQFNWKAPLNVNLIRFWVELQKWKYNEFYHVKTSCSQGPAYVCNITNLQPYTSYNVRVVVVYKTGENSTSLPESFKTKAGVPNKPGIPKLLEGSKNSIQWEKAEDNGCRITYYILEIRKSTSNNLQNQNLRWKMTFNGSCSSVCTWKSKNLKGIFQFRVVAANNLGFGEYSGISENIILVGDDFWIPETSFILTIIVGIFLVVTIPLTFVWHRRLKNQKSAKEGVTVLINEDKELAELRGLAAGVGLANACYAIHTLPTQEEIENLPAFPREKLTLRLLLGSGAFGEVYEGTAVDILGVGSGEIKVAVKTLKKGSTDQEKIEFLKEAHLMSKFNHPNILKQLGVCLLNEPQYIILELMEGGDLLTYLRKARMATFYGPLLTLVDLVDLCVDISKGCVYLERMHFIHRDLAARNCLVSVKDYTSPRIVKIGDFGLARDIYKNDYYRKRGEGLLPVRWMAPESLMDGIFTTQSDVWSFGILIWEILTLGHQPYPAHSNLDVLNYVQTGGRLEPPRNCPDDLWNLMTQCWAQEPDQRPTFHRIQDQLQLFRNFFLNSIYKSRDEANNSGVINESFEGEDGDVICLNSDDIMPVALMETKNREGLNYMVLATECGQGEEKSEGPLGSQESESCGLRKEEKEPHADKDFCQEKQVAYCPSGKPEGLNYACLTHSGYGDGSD
Chain of Serine/threonine-protein kinase OSR1 (Homo sapiens) (O95747 2-527 limits assumed): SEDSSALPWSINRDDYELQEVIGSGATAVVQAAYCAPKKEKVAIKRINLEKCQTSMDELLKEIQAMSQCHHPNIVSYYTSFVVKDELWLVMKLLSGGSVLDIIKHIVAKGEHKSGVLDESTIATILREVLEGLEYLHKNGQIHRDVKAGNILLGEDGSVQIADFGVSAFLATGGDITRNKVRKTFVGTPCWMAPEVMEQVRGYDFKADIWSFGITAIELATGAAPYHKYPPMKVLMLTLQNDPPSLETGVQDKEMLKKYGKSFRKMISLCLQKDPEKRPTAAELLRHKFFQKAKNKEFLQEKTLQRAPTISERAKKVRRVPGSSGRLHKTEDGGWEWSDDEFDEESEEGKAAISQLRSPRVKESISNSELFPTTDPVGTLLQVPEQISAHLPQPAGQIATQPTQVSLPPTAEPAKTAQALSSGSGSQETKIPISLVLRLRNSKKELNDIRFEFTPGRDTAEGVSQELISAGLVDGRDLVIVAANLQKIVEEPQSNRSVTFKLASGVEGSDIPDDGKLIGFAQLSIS

Row | SMILES | residual activity [2] [%] | residual activity [3] [%] | residual activity [4] [%] | residual activity [5] [%] | residual activity [6] [%] | residual activity [9] [%] | residual activity [10] [%] | residual activity [11] [%] | residual activity [12] [%] | residual activity [13] [%] | residual activity [14] [%] | residual activity [15] [%] | residual activity [18] [%] | residual activity [19] [%] | residual activity [20] [%] | residual activity [22] [%] | residual activity [23] [%] | residual activity [24] [%] | residual activity [25] [%] | residual activity [26] [%] | other results
1 | C[C@H](c1cccc(C#N)c1)n1cc(Cl)cc(C(N)=O)c1=N [(R)-9s] | 100 | 92 | 100 | 100 | 100 | 91 | 100 | 89 | 92 | 100 | 89 | 100 | 100 | 100 | 97 | 87 | 81 | 63 | 78 | 91 | inhibition [1]: 10%; inhibition [7]: 4%; inhibition [8]: -5.97%; inhibition [16]: 5%; inhibition [17]: -6%; IC50 [21]: 1400 nM; residual activity [27]: 76%; residual activity [28]: 79%; residual activity [29]: 100%; inhibition [30]: 0%
2 | C[C@@H](c1cccc(C#N)c1)n1cc(Cl)cc(C(N)=O)c1=N [(S)-9s] | 100 | 85 | 100 | 97 | 100 | 100 | 100 | 100 | 84 | 100 | 88 | 98 | 100 | 100 | 100 | 86 | 93 | 37 | 81 | 96 | inhibition [31]: -4.49%; inhibition [32]: 54.8%; inhibition [33]: 0.7%; residual activity [27]: 94%; residual activity [28]: 85%; residual activity [29]: 100%

From ChEMBL document CHEMBL4507301 (2021)
